For assay [1], the system named is LnCap prostate cancer cells. The assay is described as follows: Etoposide in Neowater or deionized water, surviving cells by XTT dye uptake, LnCap. In kind it is cell-based, human. The settings on record: 24 hours incubation, FIG. 1A. From the text:
(§1) Two human prostate cancer cell lines were examined—LnCap and PC3.
A general note: Tetrazolium assays rely on reduction of a dye to a coloured formazan, in cell work by metabolically active cells.

The subject of assay [2] is PC3 prostate cancer cells. The assay is described as follows: Etoposide in Neowater or deionized water, surviving cells by XTT dye uptake, PC3. In kind it is cell-based, human. The settings on record: PC3, 24 hours incubation, FIG. 1B.
Description: as §1

Here are results for 1 compound from patent US20100285141A1, “COMPOSITIONS AND METHODS FOR ENHANCING THE ACTIVITY OF PODOPHYLLOTOXIN” (DO-COOP TECHNOLOGIES LTD., priority 2008, published 2010).

Turning to `COc1cc([C@@H]2c3cc4c(cc3[C@@H](O[C@@H]3O[C@@H]5CO[C@@H](C)O[C@H]5[C@H](O)[C@H]3O)[C@H]3COC(=O)[C@H]23)OCO4)cc(OC)c1O` [etoposide, Etoposide], the “proliferation of cancer cells (cell growth)” value in assay [1] and in assay [2] was “dose-dependent decrease” each time.
